Measurements as given in the supplement of paper PMC11451515.

Test system: P12-Ichikawa
Experiment: cell viability relative to DMSO control; higher = less cytotoxic
Conditions: 48 h
Outline: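 Viability is expressed as a percentage of DMSO wells within each plate, and cell-free wells serve as background. Seeding densities in the 1536-well plates (5 μl) were 500 cells/well for NOMO1 or SEM leukemia cells and 1000 cells/well for P12-Ichikawa. Each line was adapted for at least four passages in each medium. Library compounds in DMSO were pin-dosed at 47 μM to 0.79 nM (11 points, threefold), and CellTiter-Glo One luminescence was read after 48 h at 37°C.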

[1] = HPLM + 10% dialyzed FBS, 0.000781 µM
[2] = HPLM + 10% dialyzed FBS, 0.00234 µM
[3] = HPLM + 10% dialyzed FBS, 0.00702 µM
[4] = HPLM + 10% dialyzed FBS, 0.0211 µM
[5] = HPLM + 10% dialyzed FBS, 0.0632 µM
[6] = HPLM + 10% dialyzed FBS, 0.19 µM
[7] = HPLM + 10% dialyzed FBS, 0.569 µM
[8] = HPLM + 10% dialyzed FBS, 1.71 µM
[9] = HPLM + 10% dialyzed FBS, 5.12 µM
[10] = HPLM + 10% dialyzed FBS, 15.4 µM
[11] = HPLM + 10% dialyzed FBS, 46.1 µM
[12] = RPMI 5 mM glucose + 10% FBS, 0.000781 µM
[13] = RPMI 5 mM glucose + 10% FBS, 0.00234 µM
[14] = RPMI 5 mM glucose + 10% FBS, 0.00702 µM
[15] = RPMI 5 mM glucose + 10% FBS, 0.0211 µM
[16] = RPMI 5 mM glucose + 10% FBS, 0.0632 µM
[17] = RPMI 5 mM glucose + 10% FBS, 0.19 µM
[18] = RPMI 5 mM glucose + 10% FBS, 0.569 µM
[19] = RPMI 5 mM glucose + 10% FBS, 1.71 µM
[20] = RPMI 5 mM glucose + 10% FBS, 5.12 µM
[21] = RPMI 5 mM glucose + 10% FBS, 15.4 µM
[22] = RPMI 5 mM glucose + 10% FBS, 46.1 µM
[23] = RPMI 5 mM glucose + 10% dialyzed FBS, 0.000781 µM
[24] = RPMI 5 mM glucose + 10% dialyzed FBS, 0.00234 µM
[25] = RPMI 5 mM glucose + 10% dialyzed FBS, 0.00702 µM
[26] = RPMI 5 mM glucose + 10% dialyzed FBS, 0.0211 µM
[27] = RPMI 5 mM glucose + 10% dialyzed FBS, 0.0632 µM
[28] = RPMI 5 mM glucose + 10% dialyzed FBS, 0.19 µM
[29] = RPMI 5 mM glucose + 10% dialyzed FBS, 0.569 µM
[30] = RPMI 5 mM glucose + 10% dialyzed FBS, 1.71 µM
[31] = RPMI 5 mM glucose + 10% dialyzed FBS, 5.12 µM
[32] = RPMI 5 mM glucose + 10% dialyzed FBS, 15.4 µM
[33] = RPMI 5 mM glucose + 10% dialyzed FBS, 46.1 µM

| Compound | cell viability [1] [%] | cell viability [2] [%] | cell viability [3] [%] | cell viability [4] [%] | cell viability [5] [%] | cell viability [6] [%] | cell viability [7] [%] | cell viability [8] [%] | cell viability [9] [%] | cell viability [10] [%] | cell viability [11] [%] | cell viability [12] [%] | cell viability [13] [%] | cell viability [14] [%] | cell viability [15] [%] | cell viability [16] [%] | cell viability [17] [%] | cell viability [18] [%] | cell viability [19] [%] | cell viability [20] [%] | cell viability [21] [%] | cell viability [22] [%] | cell viability [23] [%] | cell viability [24] [%] | cell viability [25] [%] | cell viability [26] [%] | cell viability [27] [%] | cell viability [28] [%] | cell viability [29] [%] | cell viability [30] [%] | cell viability [31] [%] | cell viability [32] [%] | cell viability [33] [%] |
| --- | --- | --- | --- | --- | --- | --- | --- | --- | --- | --- | --- | --- | --- | --- | --- | --- | --- | --- | --- | --- | --- | --- | --- | --- | --- | --- | --- | --- | --- | --- | --- | --- | --- |
| COCC(=O)NC/C=C/c1ccc2ncnc(Nc3ccc(Oc4ccc(C)nc4)c(C)c3)c2c1 | 99.6 | 99.3 | 101 | 107 | 101 | 92.3 | 103 | 98.6 | 95.7 | 93.1 | 64.5 | 91.7 | 112 | 106 | 105 | 105 | 100 | 91.5 | 101 | 81.6 | 77.2 | 43.1 | 102 | 109 | 115 | 113 | 105 | 99 | 97.9 | 101 | 88 | 79.7 | 51.5 |
| CC1(C)[C@@H](O)CC[C@@]2(C)[C@H]1CC[C@]3(C)[C@@H]2C(=O)\C=C/4[C@@H]5C[C@](C)(CC[C@]5(C)CC[C@@]34C)C(O)=O | 99.9 | 125 | 117 | 112 | 109 | 118 | 110 | 113 | 104 | 102 | 97.2 | 109 | 121 | 116 | 122 | 114 | 118 | 110 | 122 | 100 | 110 | 111 | 97.5 | 105 | 113 | 113 | 108 | 104 | 98.9 | 106 | 94.6 | 103 | 96.9 |
| CCOc1cc(C(=O)Nc2ccc(Cl)c(-c3nc4ccccc4[nH]3)c2)cc(OCC)c1OCC | 74.3 | 82.5 | 89 | 91 | 91.9 | 92.9 | 98.9 | 96.1 | 92 | 94.1 | 84.6 | 81.6 | 89.8 | 86.7 | 88.4 | 95.8 | 92.9 | 86.7 | 86.5 | 86.6 | 95.4 | 60.8 | 78.9 | 76.7 | 84 | 86.5 | 85.8 | 81.2 | 88.3 | 82.8 | 79.8 | 81.1 | 53.6 |
| C[C@@H]1CC[C@@]2(CC[C@]3(C)\C(=C/C[C@@H]4[C@@]5(C)C[C@@H](O)[C@H](O)[C@@](C)(CO)[C@@H]5CC[C@@]34C)[C@@H]2[C@H]1C)C(O)=O | 109 | 113 | 108 | 122 | 121 | 120 | 116 | 116 | 122 | 121 | 112 | 116 | 123 | 113 | 116 | 119 | 121 | 126 | 131 | 123 | 119 | 110 | 109 | 113 | 114 | 109 | 121 | 118 | 128 | 121 | 125 | 110 | 123 |
| Cc1nc(-c2ccc(-c3ccc(C(=O)N4CCc5cc6c(cc54)C4(CCN(C)CC4)CO6)cc3)c(C)c2)no1 | 106 | 114 | 111 | 116 | 122 | 111 | 121 | 123 | 119 | 119 | 120 | 107 | 112 | 106 | 116 | 117 | 114 | 123 | 115 | 121 | 124 | 118 | 107 | 107 | 113 | 116 | 110 | 121 | 120 | 116 | 115 | 121 | 126 |
| NCCOc1cc(C(=O)Nc2cc(OCCN)c3ccccc3n2)nc(C(=O)Nc2cc(OCCN)c3ccccc3n2)c1 | 44.2 | 13.1 | 12.7 | 12.8 | 14.1 | 12.8 | 13.3 | 9.79 | 7.51 | 21.5 | 61.7 | 113 | 120 | 113 | 19 | 17.4 | 17 | 15.7 | 16 | 16.7 | 24.4 | 68.8 |  |  |  |  |  |  |  |  |  |  |  |
| COc1cccc(OC)c1-c1cc(C(=O)NC2(C(=O)O)C3CC4CC(C3)CC2C4)nn1-c1ccnc2cc(Cl)ccc12 (stereo not given) | 115 | 118 | 112 | 116 | 114 | 109 | 114 | 113 | 101 | 94.7 | 86.1 | 113 | 119 | 126 | 118 | 119 | 99.4 | 126 | 110 | 115 | 112 | 97.5 | 113 | 118 | 119 | 114 | 117 | 110 | 101 | 110 | 107 | 108 | 99.9 |
